Experimental data from patent US7910622B2, “Modulation of bacterial quorum sensing with synthetic ligands” (Wisconsin Alumni Research Foundation, priority 2007, dated 2011).

What was measured:
Assay in all cases: cell-based
[1] = molecular target: T1, TraR (Agrobacterium tumefaciens, UniProt P33905); settings: for A. tumefaciens-TraR Activation [%]: 10 μM ligand; for A. tumefaciens-TraR Inhibition [%]: 10 μM synthetic ligand against 100 nM OOHL; for Activation (%) / Inhibition (%): A. tumefaciens-TraR; for Activation (%): Library C primary agonism screen; for Inhibition (%): Library C primary antagonism screen
T1 construct: These strains lack their AHL synthase (I) genes, but retain their native R genes; endogenous in cells; host or cells: A. tumefaciens WCF47 (Δ-traI) with PtraI-lacZ plasmid pCF372

[2] = molecular target: T2, LasR (Pseudomonas aeruginosa, UniProt P25084); format: cell-based; settings: for E. coli-LasR Inhibition [%]: 5 μM synthetic ligand against 7.5 nM OdDHL; for Inhibition (%): E. coli-LasR, Library C primary antagonism screen
T2 construct: expressed in transfected cells; host or cells: E. coli DH5α (pJN105L pSC11), arabinose-induced
Method in brief: (§1)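 E. coli DH5α carrying pJN105L/pSC11 grown to OD600 0.3, LasR expression induced with arabinose (4 mg/mL), then incubated with AHLs at 37 °C to OD600 0.45. LasR activity read by β-galactosidase reporter assay; IC50/EC50 from sigmoidal dose-response fits.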

[3] = molecular target: T2, LasR; settings: for E. coli-LasR Activation [%]: 5 μM ligand; for Activation (%): E. coli-LasR, Library C primary agonism screen
Method in brief: as §1

[4] = molecular target: T3, LuxR (Aliivibrio fischeri, UniProt P35327); format: cell-based, Vibrio fischeri; settings: for V. fischeri-LuxR Inhibition [%]: 5 μM synthetic ligand against 5 μM OHHL, V. fischeri ES114 (Δ-luxI), normalized to OHHL; for Inhibition (%): V. fischeri-LuxR, Library C primary antagonism screen
T3 construct: a Δ-luxI derivative of V. fischeri ES114, in which the native lux operon behaves as the bioluminescent reporter; endogenous in cells; host or cells: V. fischeri ES114 (Δ-luxI)
Method in brief: (§2)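 Whole-cell luminescence reporter in V. fischeri ES114 (WT, Δ-luxI or Δ-luxR) or E. coli, overnight cultures diluted 1:10 and grown with compound at RT (E. coli 30° C) to OD600 0.35-0.4 (4-6 h). Luminescence normalized to cell density, triplicates; EC50/IC50 from sigmoidal fit.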

[5] = molecular target: T3, LuxR; set-up: species or system Vibrio fischeri; settings: for V. fischeri-LuxR Activation [%]: 200 μM ligand; for Activation (%): V. fischeri-LuxR, Library C primary agonism screen
Method in brief: as §2

[6] = A. tumefaciens WCF47 (pCF372), normalized to OOHL
[7] = E. coli DH5α (pJN105L pSC11), normalized to OdDHL
[8] = V. fischeri ES114 (Δ-luxI), normalized to OHHL

T1 sequence (P33905 whole entry): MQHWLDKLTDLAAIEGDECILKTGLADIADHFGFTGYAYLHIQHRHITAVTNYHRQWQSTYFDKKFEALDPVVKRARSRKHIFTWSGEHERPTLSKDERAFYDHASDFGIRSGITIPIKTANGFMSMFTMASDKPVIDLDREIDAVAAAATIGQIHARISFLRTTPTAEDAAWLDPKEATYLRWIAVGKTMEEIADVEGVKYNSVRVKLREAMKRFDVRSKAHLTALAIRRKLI
T2 sequence (P25084 whole entry): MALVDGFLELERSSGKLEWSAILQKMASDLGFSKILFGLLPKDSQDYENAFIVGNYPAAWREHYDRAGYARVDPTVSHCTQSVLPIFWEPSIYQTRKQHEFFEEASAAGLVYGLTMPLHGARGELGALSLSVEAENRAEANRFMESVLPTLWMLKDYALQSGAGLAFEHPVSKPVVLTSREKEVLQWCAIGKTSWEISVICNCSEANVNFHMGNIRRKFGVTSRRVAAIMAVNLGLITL
T3 sequence (P35327 whole entry): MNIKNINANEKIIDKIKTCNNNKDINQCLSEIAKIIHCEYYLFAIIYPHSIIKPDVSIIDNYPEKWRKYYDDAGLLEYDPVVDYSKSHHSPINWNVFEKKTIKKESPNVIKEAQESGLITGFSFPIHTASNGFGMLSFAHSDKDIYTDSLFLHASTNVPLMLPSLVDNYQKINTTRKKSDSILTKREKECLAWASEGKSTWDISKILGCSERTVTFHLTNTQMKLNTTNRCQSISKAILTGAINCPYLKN

Compound: O=C(Cc1ccc(N=Nc2ccccc2)cc1)NC1CCOC1=O (centres unmarked) [B22]
- A. tumefaciens-TraR Activation [%] [1, 6]: 0%
- A. tumefaciens-TraR Inhibition [%] [1, 6]: 9%
- E. coli-LasR Inhibition [%] [2, 7]: 13%
- E. coli-LasR Activation [%] [3, 7]: 1%
- V. fischeri-LuxR Inhibition [%] [4]: 63%
- V. fischeri-LuxR Activation [%] [5, 8]: 3%

Compound: O=C(Cc1ccc(C(F)(F)F)cc1)N[C@H]1CCOC1=O [B23, 4-trifluoromethyl PHL]
- activation at 10 µM ([1]; read-out: A. tumefaciens-TraR Activation [%]): 2%
- inhibition at 10 µM ([1]; read-out: A. tumefaciens-TraR Inhibition [%], 10 μM synthetic ligand against 100 nM OOHL, A. tumefaciens WCF47 (pCF372), normalized to OOHL): 92%
- inhibition at 5 µM ([2]; read-out: E. coli-LasR Inhibition [%], 5 μM synthetic ligand against 7.5 nM OdDHL, E. coli DH5α (pJN105L pSC11), normalized to OdDHL): 26%
- activation at 5 µM ([3]; read-out: E. coli-LasR Activation [%], 5 μM ligand, E. coli DH5α (pJN105L pSC11), normalized to OdDHL): 0%
- V. fischeri-LuxR Inhibition [%] [4]: 78%
- IC50 ([4]; determined against 5 μM OHHL, read-out: LuxR IC50): 610 nM
- activation at 200 µM ([5]; read-out: V. fischeri-LuxR Activation [%], 200 μM ligand, V. fischeri ES114 (Δ-luxI), normalized to OHHL): 3%

Compound: COc1ccc(CC(=O)N[C@H]2CCOC2=O)cc1 [B28]
- A. tumefaciens-TraR Activation [%] [1, 6]: 0%
- A. tumefaciens-TraR Inhibition [%] [1, 6]: 26%
- E. coli-LasR Inhibition [%] [2, 7]: 16%
- E. coli-LasR Activation [%] [3, 7]: 0%
- V. fischeri-LuxR Inhibition [%] [4]: 57%
- V. fischeri-LuxR Activation [%] [5, 8]: 3%

Compound: CCOc1ccc(CC(=O)N[C@H]2CCOC2=O)cc1 [B29]
- A. tumefaciens-TraR Activation [%] [1, 6]: 0%
- A. tumefaciens-TraR Inhibition [%] [1, 6]: 35%
- E. coli-LasR Inhibition [%] [2, 7]: 15%
- E. coli-LasR Activation [%] [3, 7]: 0%
- V. fischeri-LuxR Inhibition [%] [4]: 55%
- V. fischeri-LuxR Activation [%] [5, 8]: 2%

Compound: O=C(Cc1ccc(C(F)(F)F)cc1)N[C@H]1CCOC1=O [C20, 4-trifluoromethyl PHL]
- Activation (%) [1]: 2%
- Inhibition (%) [1]: 92%
- IC50 ([1]; determined against 100 nM OOHL, read-out: TraR IC50): 810 nM
- Inhibition (%) [2]: 26%
- Activation (%) [3]: 0%
- Inhibition (%) [4]: 78%
- Activation (%) [5]: 3%

Compound: COc1ccc(CC(=O)N[C@H]2CCOC2=O)cc1 [C24]
- Activation (%) [1]: 0%
- Inhibition (%) [1]: 26%
- Inhibition (%) [2]: 16%
- Activation (%) [3]: 0%
- Inhibition (%) [4]: 57%
- Activation (%) [5]: 3%

Compound: COc1cc(C(C)=O)ccc1OCC(=O)N[C@H]1CCOC1=O [D16]
- A. tumefaciens-TraR Activation [%] [1, 6]: 0%
- A. tumefaciens-TraR Inhibition [%] [1, 6]: 11%
- E. coli-LasR Inhibition [%] [2, 7]: 18%
- E. coli-LasR Activation [%] [3, 7]: 0%
- V. fischeri-LuxR Inhibition [%] [4]: 40%
- V. fischeri-LuxR Activation [%] [5, 8]: 1%
